Several values for one entry are separate records, joined by “and”; a condition that tells them apart may be missing. Equal values may be shown once. Read-outs that look alike come from different tables or passages of the source.
Assays:
Assay type in all cases: cell-based, human
[1] = system: PBMC derived from naïve donors; assay: Cytokine secretion (quantitative ELISA) by PBMC from naïve donors; conditions: for donors with positive (x>0.1 ng/ml) IL-12 secretion / donors with positive (x>0.1 ng/ml) IL-2 secretion / donors with positive (x>0.1 ng/ml) IL-4 secretion: 48 hrs stimulation, FIG. 7A
[2] = system: naïve peripheral blood mononuclear cells (PBMC); assay: Proliferation ([3H] Thymidine) of PBMC from naïve donors stimulated with VXL tuberculosis vaccine candidates; conditions: for proliferation in donors which also manifested response to PPD: PPD positive (SI≥2) naïve PBMC, FIG. 3B; for proliferation in donors which also manifested response to PPD / positive proliferation in donors which also manifested response to TT / SI and coverage in the total 11 donors / proliferation in PPD positive versus PPD negative donors: in words; for positive proliferation in donors which also manifested response to TT: TT positive (SI≥2) naïve PBMC, FIG. 3A; for SI and coverage in the total 11 donors: in comparison with the positive controls; for proliferation in PPD positive versus PPD negative donors: naïve PBMC, FIG. 4
[3] = system: autologous macrophages infected with live Mtb; conditions: peptide-induced T cell lines from naïve donors and TB patients, FIG. 12; in words
[4] = system: anti-VXL effector T-cell lines; assay: IFN-gamma released by effector T cell lines during the lysis process (ELISA)
[5] = system: autologous macrophages loaded with VXL VCs; assay: Cytotoxic activity of VXL-induced T cell lines against loaded autologous macrophages (35S Methionine); conditions: T cell line induced by the peptide; in words
[6] = system: anti-VXL VCs T cell lines from naïve donors; assay: FACS phenotype of anti-VXL T cell lines (CD44high, CD62Lhigh); conditions: FIG. 14; for CD44high activated effector cells in CD8+ / CD62Lhigh memory cells in CD8+: after the 3rd stimulation; for CD44high activated effector cells in CD4+ / CD62Lhigh memory cells in CD4+: already after the 1st stimulation
[7] = system: anti-VXL T cell lines after the 3rd stimulation; assay: Intra-cellular staining (ICS) FACS for IFN-gamma and IL-4 in T cell lines; conditions: 6 h stimulation with peptide-loaded autologous macrophages, FIG. 15
[8] = patient #18 (FIG. 12D), Mtb patient T cell line
[9] = donor #15 (FIG. 12B), naïve donor T cell line

Sequence | donors with positive (x>0.1 ng/ml) IL-12 secretion [1] [%] | proliferation in donors which also manifested response to PPD [2] | positive proliferation in donors which also manifested response to TT [2] | SI and coverage in the total 11 donors [2] | proliferation in PPD positive versus PPD negative donors [2] | lysis of Mtb infected macrophages [3] | IFN-gamma detected [4] | IFN-gamma detected [4, 8] [µg/mL] | donors with positive (x>0.1 ng/ml) IL-2 secretion [1] [%] | lysis against PPD-loaded targets [5] | IFN-gamma detected [4, 9] [µg/mL] | CD44high activated effector cells in CD8+ [6] [%] | CD62Lhigh memory cells in CD8+ [6] [%] | CD44high activated effector cells in CD4+ [6] [%] | maximal percentage of specific IFN-gamma produced by CD8+ T-cells [7] [%] | average SI [2] | average SI ([2]; pure (>90%) peptide, naïve donors, FIG. 9A) | CD62Lhigh memory cells in CD4+ [6] [%] | donors with positive (x>0.1 ng/ml) IL-4 secretion [1] [%] | IL-4 secretion ([1]; in words)
MKTGTATTRRRLLAVLIALALPGAAVA (listed as Mycobacterium tuberculosis) [VXL206, signal peptide of Hypothetical protein MT0 213, Tuberculosis] | 8.6 | – | – | – | – | – | – | – | – | – | – | – | – | – | – | – | – | – | – | –
MLLRKGTVYVLVIRADLVNAMVAHA (listed as Mycobacterium tuberculosis) [VXL212, signal peptide of Uncharacterized protein Rv1334/MT1376 precursor, Tuberculosis] | 58.3 | stronger | more positive | highest SI and widest coverage | even stronger in donors with previous exposure to the tuberculosis Bactria | lower lysis levels | 5.6 µg/mL and 3.6 µg/mL | 7.5 | – | – | – | – | – | – | – | – | – | – | – | –
MLVLLVAVLVTAVYAFVHA (listed as Mycobacterium tuberculosis) [VXL211, signal peptide of Uncharacterized protein Rv0476/MT04941 precursor, Tuberculosis] | 58.3 | stronger | more positive | highest SI and widest coverage | even stronger in donors with previous exposure to the tuberculosis Bactria | moderate lysis | 9.2 µg/mL and 7.8 µg/mL | – | 91.6 | specific lysis | 5.9 | 80 | 40.9 | 41 | 10.6 | – | – | – | – | –
MKRGLTVAVAGAAILVAGLSGCSS [VXL203] | 8.6 | – | to some extent | to some extent | more potent in donors which were not exposed in the past to the tuberculosis Bactria | high and specific lysis | – | 11 | – | specific lysis | 3.8 | 79 | 17 | – | 8.2 | 1.8+/−0.8 | 5.7+/−6.8 | 39 | – | –
MKIRLHTLLAVLTAAPLLLAAAGCGS [VXL200] | – | stronger | to some extent | – | – | – | – | – | 25 | – | – | – | – | – | – | – | – | – | – | –
MRPSRYAPLLCAMVLALAWLSAVAG (listed as Mycobacterium tuberculosis) [VXL214, signal peptide of Putative lipoprotein IpqV precursor, Tuberculosis] | – | – | to some extent | – | – | – | – | – | – | – | – | – | – | – | – | – | – | – | – | –
MRFAQPSALSRFSALTRDWFTSTFAAPTAAQA (listed as Mycobacterium tuberculosis) [VXL208, signal peptide of ATP dependent helicase putative, Tuberculosis] | – | stronger | more positive | highest SI and widest coverage | even stronger in donors with previous exposure to the tuberculosis Bactria | lower lysis levels | 2.6 µg/mL | – | – | – | 3.6 | 50.2 | 32.1 | 52 | – | – | – | 22 | 25 | some secretion of IL-4
MAAMWRRRPLSSALLSFGLLLGGLPLAAPPLAGA (listed as Mycobacterium tuberculosis) [VXL207, signal peptide of Protease, Tuberculosis] | 8.6 | – | – | – | – | – | – | – | – | – | – | – | – | – | – | – | – | – | 25 | –
MTDVSRKIRAWGRRLMIGTAAAVVLPGLVGLAGGAATAGA (listed as Mycobacterium tuberculosis) [VXL201, signal peptide of Antigen 85B, Tuberculosis] | – | stronger | more positive | highest SI and widest coverage | even stronger in donors with previous exposure to the tuberculosis Bactria | high and specific lysis | 6 µg/mL and 10 µg/mL and 11.3 µg/mL | 14 | – | – | – | – | – | – | – | – | – | – | – | –

Reference: US10350284B1, “Antigen specific multi epitope-based anti-infective vaccines” (priority 2009, dated 2019)
